As a reminder, the IC50 is the concentration needed to halve the response being measured. As a reminder, the inhibition is the share of the control response that was lost under treatment.

Here are results for 1 compound from article PMC11204923, “Marine Cytotoxin Santacruzamate A Derivatives as Potent HDAC1-3 Inhibitors and Their Synergistic Anti-Leukemia Effects with Venetoclax” (Marine Drugs, 2024).

One data set has as its target T1, HDAC8 (Homo sapiens, UniProt Q9BY41).
T1 construct: purchased BPS Bioscience
T1 sequence (Q9BY41 1-377): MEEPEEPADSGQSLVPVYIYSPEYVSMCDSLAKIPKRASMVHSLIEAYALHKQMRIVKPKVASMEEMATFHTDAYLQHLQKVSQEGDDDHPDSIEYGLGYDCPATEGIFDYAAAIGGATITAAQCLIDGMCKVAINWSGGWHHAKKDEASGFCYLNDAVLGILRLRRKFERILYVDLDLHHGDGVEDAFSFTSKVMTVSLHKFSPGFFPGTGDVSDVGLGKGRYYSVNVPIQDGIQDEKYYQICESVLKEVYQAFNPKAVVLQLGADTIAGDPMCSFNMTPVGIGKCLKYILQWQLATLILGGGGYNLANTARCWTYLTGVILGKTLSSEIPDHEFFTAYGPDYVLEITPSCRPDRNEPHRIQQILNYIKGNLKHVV
Nature of the data set: In vitro HDAC inhibition fluorescence assay, HDAC8. The class given is biochemical. The protocol: (§1) All of the HDAC enzymes were purchased from BPS Bioscience. In vitro HDAC inhibition assays were conducted as previously described. In brief, 20 μL of recombinant HDAC enzyme solution (HDAC1-9, 11) was mixed with various concentrations of the tested compound (20 μL). The mixture was incubated at 37 °C for 1 h, and then, 10 μL of fluorogenic substrate (Boc-Lys (acetyl)-AMC for HDAC1, 2, 3 and 6; Boc-Lys (trifluoroacetyl)AMC for HDAC4, 5, 7, 8, 9 and 11) was added to achieve a final concentration of 50 μM. After incubation at 37 °C for 2 h, the catalysis was stopped by the addition of 10 μL of developer containing 30 mg/mL trypsin and 6 μM trichostatin A (TSA). Then, 30 min later, the fluorescence intensity was measured using a microplate reader at excitation and emission wavelengths of 360 and 460 nm, respectively. The inhibition ratios were calculated from the fluorescence intensity readings of tested wells relative to those of control wells, and the IC50 curves and values were determined by GraphPad Prism 6.0, using the “log(inhibitor) vs. normalized response-variable slope” function.

Another data set addresses T2, HDAC4 (Homo sapiens, UniProt P56524).
T2 construct: purchased BPS Bioscience
Nature of the data set: In vitro HDAC inhibition fluorescence assay, HDAC4. The class given is biochemical. How it is done:
as §1

The target of the next data set is T3, HDAC7 (Homo sapiens, UniProt Q8WUI4).
T3 construct: purchased BPS Bioscience
T3 sequence (Q8WUI4 1-952): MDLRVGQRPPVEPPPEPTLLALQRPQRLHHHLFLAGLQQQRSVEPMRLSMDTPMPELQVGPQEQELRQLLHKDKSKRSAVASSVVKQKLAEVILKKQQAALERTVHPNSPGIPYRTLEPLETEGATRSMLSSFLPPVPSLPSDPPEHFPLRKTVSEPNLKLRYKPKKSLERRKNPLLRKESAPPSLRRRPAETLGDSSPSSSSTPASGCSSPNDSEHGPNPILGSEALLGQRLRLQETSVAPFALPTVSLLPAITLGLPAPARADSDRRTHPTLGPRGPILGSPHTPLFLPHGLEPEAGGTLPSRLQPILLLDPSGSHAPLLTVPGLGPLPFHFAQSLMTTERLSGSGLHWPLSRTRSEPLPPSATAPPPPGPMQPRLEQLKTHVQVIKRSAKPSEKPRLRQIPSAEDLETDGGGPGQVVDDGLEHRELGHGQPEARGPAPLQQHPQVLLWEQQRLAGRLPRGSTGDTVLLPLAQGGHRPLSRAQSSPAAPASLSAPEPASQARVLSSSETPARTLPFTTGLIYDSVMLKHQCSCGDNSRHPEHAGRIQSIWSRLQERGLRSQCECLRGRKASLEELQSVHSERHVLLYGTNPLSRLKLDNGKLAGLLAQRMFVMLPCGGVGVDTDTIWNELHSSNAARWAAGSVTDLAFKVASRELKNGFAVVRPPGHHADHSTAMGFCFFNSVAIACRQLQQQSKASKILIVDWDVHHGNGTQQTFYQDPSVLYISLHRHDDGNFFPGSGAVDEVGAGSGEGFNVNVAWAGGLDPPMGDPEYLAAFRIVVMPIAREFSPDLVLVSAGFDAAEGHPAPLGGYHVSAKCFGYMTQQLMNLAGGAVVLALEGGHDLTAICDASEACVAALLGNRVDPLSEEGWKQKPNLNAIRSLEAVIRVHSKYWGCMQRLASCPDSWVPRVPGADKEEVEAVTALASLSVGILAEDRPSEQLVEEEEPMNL
Nature of the data set: In vitro HDAC inhibition fluorescence assay, HDAC7. The class given is biochemical. The protocol:
as §1

The test system of data set [1] is MV4-11, THP-1, HL60 and Kasumi-1 cells. Nature of the data set: Cell viability assay, four AML cell lines together. The class given is cell-based. The settings on record: 72 h; read-out: IC50 values against four AML cell lines (range). How it is done: The AML cell lines MV4-11, THP-1, KASUMI-1 and HL-60 were purchased from Procell Life Science & Technology Co., Ltd. (Wuhan, China). THP-1 and KASUMI-1 were cultured in RPMI-1640 complete medium containing 10% fetal bovine serum and 1% penicillin and streptomycin. MV4-11 was cultured in IMDM complete medium containing 10% fetal bovine serum and 1% penicillin and streptomycin. HL-60 was cultured in IMDM complete medium containing 20% fetal bovine serum and 1% penicillin and streptomycin. All cell lines were cultured in an incubator with humidity set at 95%, temperature at 37 °C and 5% CO2.
MV4-11, THP-1, KASUMI-1 and HL-60 cells were plated in 96-well transparent plates (10,000 to 15,000 cells/100 μL) and after incubation overnight, cells were treated with gradient-diluted inhibitors with several concentrations. After the cells were incubated with inhibitors for 72 h, 1 mg/mL of Resazurin (Sigma-Aldrich, Saint Louis, MO, USA) was added (working concentration was 0.1 mg/mL). After incubation at 37 °C for about 3 h, the fluorescence intensity of […] was measured at 560 nm/590 nm (excitation/emission) with a Spectra Max i3 Microplate Reader, and the cell viability was determined. The IC50 curve was drawn using GraphPad Prism 9.5 software.

A further data set deals with MV4-11 cells. Nature of the data set: Microdilution checkerboard assay, 25c combined with Venetoclax. The class given is cell-based. The settings on record: Homo sapiens, 72 h, read-out: Inhibition Rate (%). How it is done:
The inhibition effect of 25c combined with Venetoclax on the proliferation of MV4-11 cells was determined by microdilution checkerboard assay. CompuSyn software was used to calculate the combined action index of the two compounds, and the cell inhibition rates of the two compounds acting alone and the combined action were input to calculate the combination index (CI) to evaluate the synergistic effect of the drugs. A CI value less than 1 indicates a synergistic effect, a CI value equal to 1 indicates an additive effect and a CI value greater than 1 indicates an antagonistic effect.
(In general: Broth dilution looks for growth in wells or tubes with falling amounts of substance.)

Data set [2] is described as follows: In vitro stability in rat plasma. The following applies: 37 °C, within 24 h, degradation beginning after about 8 h. The class given is in vitro ADME. The protocol: (§2) Equal samples were collected, and 600 μL acetonitrile was added to quench enzyme reactions. The reaction mixture was swirled for 30 s and then centrifuged at 15,000 rpm at 4 °C for 15 min. The supernatant of each sample was analyzed directly by HPLC (1260 Infinity II, Agilent Technologies, Waldbronn, Germany).

Data set [3] in a line: In vitro stability in artificial intestinal juice. The class given is in vitro ADME. The settings on record: 37 °C, within 24 h, degradation beginning after about 8 h. How it is done: as §2

T2 sequence (P56524 whole entry): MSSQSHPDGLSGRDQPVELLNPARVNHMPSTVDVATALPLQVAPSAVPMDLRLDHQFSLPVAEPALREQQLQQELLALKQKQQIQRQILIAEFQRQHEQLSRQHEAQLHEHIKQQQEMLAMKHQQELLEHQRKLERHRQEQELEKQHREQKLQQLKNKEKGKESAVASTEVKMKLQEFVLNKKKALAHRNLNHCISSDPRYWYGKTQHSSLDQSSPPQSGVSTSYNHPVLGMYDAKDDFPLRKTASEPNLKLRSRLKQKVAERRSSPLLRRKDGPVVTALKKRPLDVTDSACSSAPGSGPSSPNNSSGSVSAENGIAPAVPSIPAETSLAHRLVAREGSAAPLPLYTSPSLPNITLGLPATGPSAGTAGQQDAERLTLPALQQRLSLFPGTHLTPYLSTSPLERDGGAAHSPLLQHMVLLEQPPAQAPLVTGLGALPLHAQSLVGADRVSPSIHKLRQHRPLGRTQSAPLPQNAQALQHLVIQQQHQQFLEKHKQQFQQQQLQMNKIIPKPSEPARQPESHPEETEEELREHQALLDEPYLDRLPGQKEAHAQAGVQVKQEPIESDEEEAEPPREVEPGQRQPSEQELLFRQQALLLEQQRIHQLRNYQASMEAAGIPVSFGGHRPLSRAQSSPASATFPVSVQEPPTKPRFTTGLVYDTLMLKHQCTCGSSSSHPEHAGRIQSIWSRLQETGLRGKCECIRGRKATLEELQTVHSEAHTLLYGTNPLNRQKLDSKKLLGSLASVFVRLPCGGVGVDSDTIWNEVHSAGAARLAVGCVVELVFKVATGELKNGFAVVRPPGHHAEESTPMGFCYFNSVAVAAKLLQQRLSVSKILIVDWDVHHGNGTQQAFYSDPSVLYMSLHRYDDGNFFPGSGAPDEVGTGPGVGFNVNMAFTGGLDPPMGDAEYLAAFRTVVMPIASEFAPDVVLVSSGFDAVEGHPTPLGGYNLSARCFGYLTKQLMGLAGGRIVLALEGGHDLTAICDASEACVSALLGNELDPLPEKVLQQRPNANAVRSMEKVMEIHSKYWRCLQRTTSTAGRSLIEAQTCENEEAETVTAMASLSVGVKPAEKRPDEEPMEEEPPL

Take `CCCNNC(=O)C=Cc1ccc(CNCCc2ccccc2)cc1` [Compound 25c, 3-(4-((Phenethylamino)methyl)phenyl)-N′-propylacrylohydrazide]: the 50% inhibitory concentration (IC50) is 4.11 ± 0.63 µM on HDAC8, over 10 µM at HDAC4, over 10 µM against HDAC7 and 0.338 to 0.48 µM in data set [1]. For the same compound, the inhibition at 0.13 µM in the data set on MV4-11 cells (25c 0.13 μM alone) was 15.8%. In addition, the inhibition at 0.19 µM in the data set on MV4-11 cells (25c 0.19 μM alone) is 33.9%. Besides, in the data set on MV4-11 cells (25c 0.28 μM alone), the inhibition at 0.28 µM came to 69.8%. The “degradation in rat plasma” value in data set [2] amounted to 35.60%. Moreover, the “degradation in artificial intestinal juice” value in data set [3] is recorded as 12.52%.
